Data published in patent US9169217B2, “Arylalkyl esters of 4-amino-6-(substituted phenyl)-picolinates and 6-amino-2-(substituted phenyl)-pyrimidinecarboxylates and their use as selective herbicides for crops” (Dow AgroSciences LLC, priority 2011, dated 2015).

Legend:
[1] = system: Scirpus juncoides ROXB. (Japanese bulrush); assay: Postemergence foliar-applied herbicidal activity in direct seeded rice (Example 16); format: in vivo; details: Schoenoplectiella juncoides, post-emergence, 504 h; rice cropping systems, foliar-applied, 8.75 g ae/ha, 21 DAA; may represent multiple trials; read-out: Visual Injury (%) SCPJU
Description: (§1) Seeds or nutlets of the desired test plant species were planted in a soil matrix prepared by mixing a loam soil (43 percent silt, 19 percent clay, and 38 percent sand, with a pH of about 8.1 and an organic matter content of about 1.5 percent) and river sand in an 80 to 20 ratio. The soil matrix was contained in plastic pots with a surface area of 139.7 cm^2. When required to ensure good germination and healthy plants, a fungicide treatment and/or other chemical or physical treatment was applied. The plants were grown for 10-17 d in a greenhouse with an approximate 14-h photoperiod which was maintained at about 29° C. during the day and 26° C. during the night. Nutrients and water were added on a regular basis and supplemental lighting was provided with overhead metal halide 1000-Watt lamps as necessary. The plants were employed for testing when they reached the second or third true leaf stage.
(§2) Treatments consisted of esters of compounds 1-4, 6-8, 10, 11, 13-16, 20-31, 35, 38, 41 and 42 and A-E. Compound A is methyl 4-amino-3-chloro-6-(4-chloro-3-ethoxy-2-fluorophenyl)-5-fluoropicolinate; compound B is methyl 4-amino-3-chloro-6-(4-cyclopropylphenyl)-5-fluoropicolinate; compound C is methyl 4-amino-3-chloro-6-(2,4-dichloro-3-methoxyphenyl)picolinate; compound D is methyl 6-amino-2-(4-chloro-2-fluoro-3-methoxyphenyl)-5-vinylpyrimidine-4-carboxylate; and compound E is methyl 4-amino-3-chloro-6-(4-chloro-2-fluoro-3-methoxyphenyl)-5-fluoropicolinate. Weighed amounts of technical grade compounds were placed in 25 mL glass vials and dissolved in a volume of 97:3 v/v acetone-DMSO to obtain 12× stock solutions. […] The concentrated stock solutions were added to the spray solutions so that the final acetone and DMSO concentrations were 16.2% and 0.5%, respectively. Spray solutions were diluted to the appropriate final concentrations with the addition of 10 mL of an aqueous mixture of 1.5% (v/v) Agri-dex crop oil concentrate. Generally, multiple concentrations of spray solutions were formulated and tested utilizing the same stock solution. The final spray solutions contained 1.25% (v/v) Agri-dex crop oil concentrate. Compound requirements are based upon a 12 mL application volume at a rate of 187 L/ha. Spray solutions were applied to the plant material with an overhead Mandel track sprayer equipped with 8002E nozzles calibrated to deliver 187 L/ha over an application area of 0.503 square meters (m^2) at a spray height of 18 inches (43 cm) above average plant canopy height. Control plants were sprayed in the same manner with the solvent blank.
(§3) The treated plants and control plants were placed in a greenhouse as described above and watered by sub-irrigation to prevent wash-off of the test compounds. After 3 weeks, the condition of the test plants, compared with that of the untreated plants, was determined visually and scored on a scale of 0 to 100 percent where 0 corresponds to no injury and 100 corresponds to complete kill.
(§4) By applying the well-accepted probit analysis as described by J. Berkson in Journal of the American Statistical […], 48, 565 (1953) and by D. Finney in “Probit Analysis” Cambridge University Press (1952), the data gathered can be used to calculate GR50 and GR80 values, which are defined as growth reduction factors that correspond to the effective dose of herbicide required to kill or control 50 percent or 80 percent, respectively, of a target plant.

[2] = system: Cyperus difformis L. (small-flower flatsedge); assay: as above; format: in vivo; details: post-emergence, 504 h, rice cropping systems, foliar-applied, 8.75 g ae/ha, 21 DAA, may represent multiple trials, read-out: Visual Injury (%) CYPDI
Description: as §1, §2, §3, §4

[3] = system: Echinochloa crus-galli (L.) P.BEAUV. (barnyardgrass); assay: In-water applied herbicidal activity in transplanted paddy rice (Example 17); format: in vivo; details: Echinochloa crus-galli, 504 h, rice cropping systems, in-water applied (paddy), 21 DAA, may represent multiple trials, read-out: Visual Injury (%) ECHCG; for pest or weed control at 17.5 g/ha: 17.5 g ae/ha; for pest or weed control at 35 g/ha: 35 g ae/ha
Procedure: (§5) Weed seeds or nutlets of the desired test plant species were planted in puddled soil (mud) prepared by mixing a non-sterilized mineral soil (28 percent silt, 18 percent clay, and 54 percent sand, with a pH of about 7.3 to 7.8 and an organic matter content of about 1.0 percent) and water at a ratio of 100 kilograms (kg) of soil to 19 liters (L) of water. The prepared mud was dispensed in 250 mL aliquots into 480 mL non-perforated plastic pots with a surface area of 91.6 cm^2 leaving a headspace of 3 cm in each pot. Rice seeds were planted in Sun Gro MetroMix 306 planting mixture, which typically has a pH of 6.0 to 6.8 and an organic matter content of about 30 percent, in plastic plug trays. Seedlings at the second or third leaf stage of growth were transplanted into 650 mL of mud contained in 960 mL non-perforated plastic pots with a surface area of 91.6 cm^2 four days prior to herbicide application. The paddy was created by filling the 3 cm headspace of the pots with water. When required to ensure good germination and healthy plants, a fungicide treatment and/or other chemical or physical treatment was applied. The plants were grown for 4-14 d in a greenhouse with an approximate 14-h photoperiod which was maintained at about 29° C. during the day and 26° C. during the night. Nutrients were added as Osmocote (17:6:10, Nitrogen:Phosphorus:Potassium (N:P:K)+minor nutrients) at 2 grams (g) per cup. Water was added on a regular basis to maintain the paddy flood, and supplemental lighting was provided with overhead metal halide 1000-Watt lamps as necessary. The plants were employed for testing when they reached the second or third true leaf stage.
(§6) Treatments consisted of esters of compounds 1-4, 6-33, 35-39, 41 and 42 and A-G. Compound A is methyl 4-amino-3-chloro-6-(4-chloro-3-ethoxy-2-fluorophenyl)-5-fluoropicolinate; compound B is methyl 4-amino-3-chloro-6-(4-cyclopropylphenyl)-5-fluoropicolinate; compound C is methyl 4-amino-3-chloro-6-(2,4-dichloro-3-methoxyphenyl)picolinate; compound D is methyl 6-amino-2-(4-chloro-2-fluoro-3-methoxyphenyl)-5-vinylpyrimidine-4-carboxylate; compound E is methyl 4-amino-3-chloro-6-(4-chloro-2-fluoro-3-methoxyphenyl)-5-fluoropicolinate; compound F is methyl 6-amino-2-(4-chloro-2-fluoro-3-methoxyphenyl)-5-methoxypyrimidine-4-carboxylate; and compound G is methyl 4-amino-3-chloro-6-(4-chloro-2-fluoro-3-methoxyphenyl)picolinate. Weighed amounts of technical grade compounds were placed in individual 120 mL glass vials and were dissolved in 20 mL of acetone to obtain concentrated stock solutions. […] The concentrated stock solutions obtained were diluted with 20 mL of an aqueous mixture containing 2.5% Agri-dex crop oil concentrate (v/v). The final application solutions contained 1.25% (v/v) Agri-dex crop oil concentrate. Generally, multiple concentrations were tested utilizing the same stock solution. Applications were made by injecting an appropriate amount of the application solution into the aqueous layer of the paddy. Control plants were treated in the same manner with the solvent blank.
as §3, with “water was added as needed” for “watered by sub-irrigation”, “maintain a paddy flood.” for “prevent wash-off of the test compounds.”, “weeks” for “weeks,”
as §4

[4] = system: Scirpus juncoides ROXB. (Japanese bulrush); assay: as above; format: in vivo; details: Schoenoplectiella juncoides, 504 h; rice cropping systems, in-water applied (paddy), 17.5 g ae/ha, 21 DAA; may represent multiple trials; read-out: Visual Injury (%) SCPJU
Procedure: as §5, §6
as §3, with “water was added as needed” for “watered by sub-irrigation”, “maintain a paddy flood.” for “prevent wash-off of the test compounds.”, “weeks” for “weeks,”
as §4

[5] = system: Echinochloa crus-galli (L.) P.BEAUV. (barnyardgrass); assay: Postemergence foliar-applied herbicidal activity in direct seeded rice (Example 16); format: in vivo; details: rice cropping systems, 8.75 g ae/ha, 21 DAA, may represent multiple trials
Description: as §1, §2, §3, §4

[6] = system: Echinochloa colonum (L.) LINK (junglerice); assay: as above; format: in vivo; details: Echinochloa colona, post-emergence, 504 h, rice cropping systems, 8.75 g ae/ha, 21 DAA, may represent multiple trials, read-out: Visual Injury (%) ECHCO
Description: as §1, §2, §3, §4

[7] = system: Fimbristylis miliacea (L.) VAHL (globe fringerush); assay: In-water applied herbicidal activity in transplanted paddy rice (Example 17); format: in vivo; details: rice cropping systems, in-water applied (paddy), 35 g ae/ha, 21 DAA; may represent multiple trials
Procedure: as §5, §6
as §3, with “water was added as needed” for “watered by sub-irrigation”, “maintain a paddy flood.” for “prevent wash-off of the test compounds.”, “weeks” for “weeks,”
as §4

| melting point | Structure (SMILES) | pest or weed control at 8.75 g/ha [1] | pest or weed control at 8.75 g/ha [2] | pest or weed control at 17.5 g/ha [3] | pest or weed control at 17.5 g/ha [4] | Visual Injury (%) ECHCG [5] | pest or weed control at 8.75 g/ha [6] | pest or weed control at 35 g/ha [3] | Visual Injury (%) FIMMI [7] |
| --- | --- | --- | --- | --- | --- | --- | --- | --- | --- |
| 207 to 208 °C | COc1c(Cl)ccc(-c2nc(C(=O)OCc3ccc([N+](=O)[O-])cc3)c(Cl)c(N)c2F)c1F [Compound 21] | 100% | 100% | 10% | 80% |  |  |  |  |
| 107 to 108 °C | COc1c(Cl)ccc(-c2nc(C(=O)OCCc3ccc(Cl)cc3)c(Cl)c(N)c2F)c1F [Compound 22] | 90% | 100% | 0% | 40% |  |  |  |  |
| 160 to 161 °C | COc1c(Cl)ccc(-c2nc(C(=O)OCc3cccc(F)c3)c(Cl)c(N)c2F)c1F [Compound 23] | 100% | 100% | 60% | 95% |  |  |  |  |
| 143 to 144 °C | COc1c(Cl)ccc(-c2nc(C(=O)OCc3ccc(F)cc3)c(Cl)c(N)c2F)c1F [Compound 24] | 100% | 100% | 70% | 100% |  |  |  |  |
| 169 °C | COc1c(Cl)ccc(-c2nc(C(=O)OCc3ccccc3F)c(Cl)c(N)c2F)c1F [Compound 25] | 100% | 100% | 10% | 90% |  |  |  |  |
| 133 to 134 °C | COc1c(Cl)ccc(-c2nc(C(=O)OCc3ccccc3C(F)(F)F)c(Cl)c(N)c2F)c1F [Compound 26] | 100% | 100% | 20% | 100% |  |  |  |  |
| 75 to 76 °C | COc1c(Cl)ccc(-c2nc(C(=O)OCc3ccc(C(C)C)cc3)c(Cl)c(N)c2F)c1F [Compound 27] | 100% | 100% | 10% | 80% |  |  |  |  |
| 142 to 143 °C | COc1c(Cl)ccc(-c2nc(C(=O)OCc3ccc4ccccc4c3)c(Cl)c(N)c2F)c1F [Compound 28] | 100% | 100% | 10% | 50% |  |  |  |  |
| 144 to 145 °C | COC(=O)c1cccc(COC(=O)c2nc(-c3ccc(Cl)c(OC)c3F)c(F)c(N)c2Cl)c1 [Compound 29] | 100% | 100% | 10% | 60% |  |  |  |  |
| 167 to 168 °C | COc1c(Cl)ccc(-c2nc(C(=O)OCc3ccc(Cl)cc3C)c(Cl)c(N)c2F)c1F [Compound 30] | 0% | 99% | 50% | 85% |  |  |  |  |
| 145 °C | COc1c(Cl)ccc(-c2nc(C(=O)OCc3ccc(SC)cc3)c(Cl)c(N)c2F)c1F [Compound 31] | 100% | 100% | 50% | 85% |  |  |  |  |
| 119 to 121 °C | C=Cc1c(N)nc(-c2ccc(Cl)c(OC)c2F)nc1C(=O)OCc1ccccc1 [Compound 35, benzyl 6-amino-2-(4-chloro-2-fluoro-3-methoxyphenyl)-5-vinylpyrimidine-4-carboxylate] |  |  |  |  | 95% | 90% | 76% |  |
|  | COc1ccc(COC(=O)c2nc(-c3ccc(Cl)c(OC)c3F)cc(N)c2Cl)cc1 [Compound 36, 4-methoxybenzyl 4-amino-3-chloro-6-(4-chloro-2-fluoro-3-methoxyphenyl)picolinate] |  |  |  |  |  |  |  | 100% |
|  | C=Cc1c(N)nc(-c2ccc(Cl)c(OC)c2F)nc1C(=O)OC [D, methyl 6-amino-2-(4-chloro-2-fluoro-3-methoxyphenyl)-5-vinylpyrimidine-4-carboxylate, reference compound] |  |  |  |  | 87% | 79% | 54% |  |
